Reference: patent US7557144B1, “Modulation of protein expression using carbocyclic aryl alkenoic acid derivatives” (The Johns Hopkins University, priority 2000, dated 2009)

Experiments:
[1] = growth medium, 37° C., 5% CO2; previously determined (ref. 30); cited from earlier work
Hsc70-CFTR complexes = molecular target: T1, Hsc70-CFTR complexes (Homo sapiens, UniProt P11142+P13569, DEL508-508); test: Immunoprecipitation of Hsc70-CFTR complexes from untreated IB3-1 cells with 4-PBA in lysis and wash buffers; assay type: binding; settings: 1 mM 4-PBA added to RIPA lysis and wash buffers
T1 construct: endogenous in cells; host or cells: IB3-1 (RIPA lysate, immunoprecipitated with anti-Hsc70 serum)
T1 sequence (P13569 with tags, fused parts or gaps DEL508-508): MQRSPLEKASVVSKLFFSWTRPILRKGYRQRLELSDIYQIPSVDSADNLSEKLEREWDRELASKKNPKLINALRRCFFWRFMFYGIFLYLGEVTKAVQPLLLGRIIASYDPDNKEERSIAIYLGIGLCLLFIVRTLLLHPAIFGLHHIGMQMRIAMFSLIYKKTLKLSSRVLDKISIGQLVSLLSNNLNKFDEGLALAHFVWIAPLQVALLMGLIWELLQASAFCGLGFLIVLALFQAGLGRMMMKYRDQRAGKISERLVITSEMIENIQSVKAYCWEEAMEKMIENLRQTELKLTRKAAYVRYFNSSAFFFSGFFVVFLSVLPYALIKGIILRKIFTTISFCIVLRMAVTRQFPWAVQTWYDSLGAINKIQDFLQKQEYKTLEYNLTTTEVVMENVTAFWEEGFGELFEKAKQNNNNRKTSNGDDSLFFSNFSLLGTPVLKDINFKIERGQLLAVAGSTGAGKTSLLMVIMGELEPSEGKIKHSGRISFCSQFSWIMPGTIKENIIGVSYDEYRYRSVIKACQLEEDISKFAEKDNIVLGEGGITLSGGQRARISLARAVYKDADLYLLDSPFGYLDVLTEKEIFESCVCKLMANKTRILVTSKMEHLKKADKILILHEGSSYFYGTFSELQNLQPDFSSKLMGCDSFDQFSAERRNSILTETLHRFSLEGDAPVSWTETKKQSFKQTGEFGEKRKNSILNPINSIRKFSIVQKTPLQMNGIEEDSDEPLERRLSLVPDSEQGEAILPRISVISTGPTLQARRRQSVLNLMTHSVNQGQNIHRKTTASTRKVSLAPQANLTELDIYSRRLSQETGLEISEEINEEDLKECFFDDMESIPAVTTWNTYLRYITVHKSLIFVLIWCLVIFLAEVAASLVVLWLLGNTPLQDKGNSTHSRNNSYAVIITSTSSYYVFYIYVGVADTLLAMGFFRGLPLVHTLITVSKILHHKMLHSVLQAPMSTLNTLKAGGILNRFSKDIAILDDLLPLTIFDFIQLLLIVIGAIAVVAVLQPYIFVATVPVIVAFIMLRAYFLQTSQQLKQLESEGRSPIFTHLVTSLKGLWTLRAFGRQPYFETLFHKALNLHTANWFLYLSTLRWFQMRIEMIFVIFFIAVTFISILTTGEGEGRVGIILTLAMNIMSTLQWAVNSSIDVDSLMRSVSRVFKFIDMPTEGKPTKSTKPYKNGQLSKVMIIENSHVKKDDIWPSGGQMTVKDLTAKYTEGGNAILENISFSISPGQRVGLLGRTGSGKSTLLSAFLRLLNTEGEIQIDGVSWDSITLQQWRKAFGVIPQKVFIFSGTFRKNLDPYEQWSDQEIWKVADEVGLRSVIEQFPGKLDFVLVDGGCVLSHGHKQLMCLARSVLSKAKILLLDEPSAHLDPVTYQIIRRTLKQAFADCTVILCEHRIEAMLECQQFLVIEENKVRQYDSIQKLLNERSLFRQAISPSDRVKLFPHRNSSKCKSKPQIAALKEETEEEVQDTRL
T1 sequence (P11142 2-646 limits assumed, stated change not applied): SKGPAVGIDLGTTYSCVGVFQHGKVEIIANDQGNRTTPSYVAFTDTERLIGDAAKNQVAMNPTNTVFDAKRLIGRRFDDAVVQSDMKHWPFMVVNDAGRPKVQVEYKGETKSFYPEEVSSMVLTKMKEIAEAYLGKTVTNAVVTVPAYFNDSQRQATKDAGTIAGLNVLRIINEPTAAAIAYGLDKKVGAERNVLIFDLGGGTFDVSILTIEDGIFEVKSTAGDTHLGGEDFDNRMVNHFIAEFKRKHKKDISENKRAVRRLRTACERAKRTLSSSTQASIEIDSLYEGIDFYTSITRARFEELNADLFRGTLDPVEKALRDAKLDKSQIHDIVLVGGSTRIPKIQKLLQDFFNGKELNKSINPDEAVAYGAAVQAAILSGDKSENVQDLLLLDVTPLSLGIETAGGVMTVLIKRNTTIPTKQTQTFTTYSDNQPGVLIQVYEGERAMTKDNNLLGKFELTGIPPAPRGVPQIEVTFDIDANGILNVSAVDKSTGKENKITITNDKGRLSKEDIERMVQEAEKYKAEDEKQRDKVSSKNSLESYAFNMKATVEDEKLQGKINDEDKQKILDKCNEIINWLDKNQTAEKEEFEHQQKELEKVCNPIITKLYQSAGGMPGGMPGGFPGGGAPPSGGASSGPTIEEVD
Experimental: 5. Immunoprecipitation. Cultured cells were solubilized by incubation for 1 h at 4° C. in RIPA[50 mM Tris-Cl (pH8.0), 150 mM NaCl, 1% Triton X-100 (Bio-Rad or Fisher Scientific), 1% sodium deoxycholate (Sigma), and protease inhibitor cocktail (Sigma; used at 1:1,000 final dilution)]. Solubilized cells were then homogenized by passage 10 times through a 20-gauge needle and cleared by centrifugation at 15,000 g for 20 min at 4° C. Protein concentration was determined using the Bio-Rad DC reagents as above. Polyclonal Hsc70 antiserum was added to the cell lysates (2 μl/250 μg total protein, with equal amounts of protein at equal final concentrations for each condition within an experiment) and incubated at 4° C. over-night with gentle agitation. Immune complexes were captured with protein A-Sepharose 4B (Pharmacia Biotechnologies, Piscataway, N.J.) that had been preabsorbed with BSA for 45 min at 4° C. […]
The decrease in CFTR recovered by immunoprecipitation in proportion to the decrease in Hsc70 is consistent with 4-PBA not directly influencing the binding affinity of CFTR and Hsc70. This was further assessed by immunoprecipitating Hsc70-CFTR complexes from untreated IB3-1 cells either with or without 1 mM 4-PBA added to the RIPA lysis and wash buffers.

[2] = set-up: fraction of administered 4-PBA excreted as PAG in the urine: unit not given here; settings: cited from earlier work
[3] = system: CF airway epithelial cells; settings: Rubenstein et al. 1997; cited from earlier work
CFTR = settings: IB3-1 cells; previously shown (ref. 30); cited from earlier work
Hsp90 = Hsp90 immunoblot of IB3-1 lysates; assay type: cell-based, human; settings: IB3-1 cells, increasing concentrations of 4-PBA
Experimental: (§1) 3. Immunoblot analysis. Whole cell lysates were prepared by solubilization with 2% SDS at 95° C. Protein concentration in the lysates was determined using the Bio-Rad DC assay reagents with bovine plasma g-globulin as a standard (Bio-Rad Laboratories, Hercules, Calif.). Equal amounts of protein was resolved on 5, 7, 8, or 9% SDS-polyacrylamide gels. Proteins were transferred to nitrocellulose, and immunodetection was performed as previously described (25). Nonspecific binding was blocked by incubation of the nitrocellulose with 2% gelatin or 10% nonfat day milk. Primary antisera and secondary antibodies were applied in buffer containing 0.4% BSA overnight at 4° C. and for 1 h at room temperature, respectively. Detection of immunoreactivity was performed with the enhanced chemiluminescence reagent (ECL, Amer-sham) and fluorography. Recombinant bovine Hsc70 ([…]) was purchased from Stressgen Biotechnologies for use in constructing a standard curve of Hsc70 immunoreactivity. Immunoblots containing the bovine Hsc70 were probed with the Hsc70-specific polyclonal antiserum.
Whether 4-PBA would regulate expression of a number of other molecular chaperones in IB3-1 cells (FIG. 2) was assessed next. […] Hsp90 is required for correct folding and function of a number of cellular proteins (16). […] Hsp70 (Hsp72) expression is induced by heat shock and the presence of denatured proteins within the eukaryotic cell (16). In Escherichia coli, the Hsp70 homologue DnaK and the Hsp40 homologue DnaJ act to promote protein folding (16). Hdj2 is the member of the Hsp40 family that specifically interacts with and regulates the ATPase activity of Hsc70. Hdj2 also interacts with CFTR during CFTR translation (26).
FIGS. 2A-2E are more specifically explained as follows. […]
FIGS. 5A-C are explained in more detail as follows. […] Cellular homogenates were prepared in 2% SDS as described in METHODS, and 5 μg of total cellular protein were analyzed by immunoblot for Hsc70 using rabbit polyclonal antiserum, Hsp90, Hsp70, Hsp40 as described above under General Comments. […]

calnexin = test: Calnexin immunoblot of IB3-1 lysates; assay type: cell-based, human; settings: IB3-1 cells, increasing concentrations of 4-PBA
Experimental: as §1
(§2) Whether 4-PBA would regulate expression of a number of other molecular chaperones in IB3-1 cells (FIG. 2) was assessed next. […] Hsp90 is required for correct folding and function of a number of cellular proteins (16). […]

Hdj2 = Hdj2 immunoblot of IB3-1 lysates; assay type: cell-based, human; settings: IB3-1 cells, increasing concentrations of 4-PBA
Experimental: as §1, §2

**Q.** Which “time for which a constant concentration is maintained under culture conditions” value [1] does the source give for O=C(O)CCCc1ccccc1 [4-PBA, 4-phenylbutyric acid] here?
**A.** The value was “at least 2 days”.

**Q.** And the “recovery of Hsc70 and associated CFTR” value (Hsc70-CFTR complexes)?
**A.** Its value is “unaltered”.

**Q.** What about the “fraction of administered 4-PBA excreted as PAG in the urine” value ([2]; in vivo) of the same molecule?
**A.** Its value is “Ninety”.

**Q.** And the “in vivo metabolic conversion” value ([2]; then conjugated with glutamine to phenacetylglutamine, excreted in urine (ref. 6))?
**A.** Its value is “rapidly and completely converted by β-oxidation to phenylacetate”.

**Q.** What about the cAMP-mediated chloride transport [3] of the same molecule?
**A.** The cAMP-mediated chloride transport was “promote functional correction of cAMP-medicated chloride transport”.

**Q.** And the “4-PBA concentration leading to increased overall expression and appearance of mature CFTR” value (CFTR)?
**A.** Its value is greater than 0.1 mM.

**Q.** What about the “expression of Hsp90” value (Hsp90) of the same molecule?
**A.** Its value is “did not affect”.

**Q.** And the expression of calnexin (calnexin)?
**A.** The expression of calnexin was “did not affect”.

**Q.** And the “expression of Hdj-2” value (Hdj2)?
**A.** Its value is “did not affect”.
